Data taken from US20240057617A1, “COMPOSITIONS AND METHODS FOR MEALYBUG MONITORING AND CONTROL” (The State of Israel, Ministry of Agriculture & Rural …, priority 2019, published 2024).

Experiments:
N. viridis males [1] = test: Petri dish choice bioassay (arrestment of males on impregnated paper disks); format: in vivo, Nipaecoccus viridis; conditions: for mean number of males attracted to bait (arrested on paper disk): 10 ng on filter paper disk, 24 males released, counted after 1 h, mean ±SE, n=6
Experimental: Insects. N. viridis populations were collected from two citrus groves in Israel, in West Negev and the […] areas. These populations were used to establish a colony on sprouted potatoes (Solanum tuberosum) in a rearing room at 25±1° C., 50-60% relative humidity, and under a photoperiod of […]:10D. First stage larval instars were separated to a different cage and emerged adult males were removed manually each day (Levi-Zada et al. 2014). Adult females, 10 days after the last molt, were transferred to clean potato sprouts for further use in experiments. Behavioral Bioassays. The two putative female sex pheromone components and their 1:1 mixture were tested in 14-cm diameter glass Petri dish arenas (Mendel et al. 2012). Four filter paper disks (5-mm diameter, Whatman No. 1) impregnated with 1 μl n-hexane solutions containing 10 ng γ-necrodol (I), 10 ng γ-necrodyl isobutyrate (II), 5 ng of each I+II combined, and solvent only (control) were equally spaced in random order on the periphery of the arena in each test (n=6). Twenty-four males were released in each of the tests at the center of a Petri dish and after 1 h the number of males found on each paper disk was recorded. […] If a significant difference was found then post-hoc pairwise Conover tests with Bonferroni correction for multiple comparisons was performed (same PMCMR package).

N. viridis males [2] = test: Flight bioassay with baited sticky traps in rearing room; format: in vivo, Nipaecoccus viridis; conditions: for average males caught on sticky trap: 20 μg in polyethylene vial, 12 days, mean ±SE, N=12; for statistical comparison of male catches per day with control: Kruskal-Wallis P=0.001, Conover's test at α=0.05
Experimental: Insects. N. viridis populations were collected from two citrus groves in Israel, in West Negev and the Galilee areas. These populations were used to establish a colony on sprouted potatoes (Solanum tuberosum) in a rearing room at 25±1° C., 50-60% relative humidity, and under a photoperiod of 14L:10D. First stage larval instars were separated to a different cage and emerged adult males were removed manually each day (Levi-Zada et al. 2014). Adult females, 10 days after the last molt, were transferred to clean potato sprouts for further use in experiments.
Flight bioassays of males compared the attractiveness of the female produced components in a 3×3 m^2 rearing room in which a colony of mealybugs, in several open plastic containers, was placed on the floor in the center. Traps consisting of white cards (18×10 cm^2) covered with 80% polyisobutene adhesive (Rimifoot, Rimi, Petah Tikva, Israel) were baited with 0.5 ml 5×8 mm ID×OD polyethylene vials (Just Plastic, Norfolk, UK) containing either 20 μg of γ-necrodol (I), γ-necrodyl isobutyrate (II), their mixture (I+II, 20 μg each), each in 200 μl n-hexane solution, or only 200 μl n-hexane control. The baited traps were hung at 1.2 m height, separated by 2.8 m and were rotated in position every day for 12 days. The Kruskal-Wallis rank sum test and post-hoc Conover tests above were used to compare catches on treatments for statistical differences.

Compound: CC1=C(C)C(C)(C)C(CO)C1 (stereo not shown) [compound I, 2,2,3,4-tetramethyl-3-cyclopentene-1-methanol]
- mean number of males attracted to bait (arrested on paper disk) (N. viridis males [1]): 0.5±0.2 males
- average males caught on sticky trap (N. viridis males [2]): 139±41 males per day
- statistical comparison of male catches per day with control (N. viridis males [2]): not significantly different

Compound: γ-necrodyl isobutyrate [compound II]
- mean number of males attracted to bait (arrested on paper disk) (N. viridis males [1]): 3.16±0.7 males
- statistical comparison of male arrestment with control (N. viridis males [1]; Kruskal-Wallis, post-hoc Conover tests with Bonferroni correction, all P<0.0001): significantly different from I or control
- average males caught on sticky trap (N. viridis males [2]): 654±178 males per day
- statistical comparison of male catches per day with control (N. viridis males [2]): significantly more
